Data on 3 substances can be found in paper PMC4063695, “Design of Embedded-Hybrid Antimicrobial Peptides with Enhanced Cell Selectivity and Anti-Biofilm Activity” (PLoS ONE, 2014).

In one series the test system is E. coli CVCC1515. The source says:
(§1) E. coli ATCC25922, P. aeruginosa ATCC27853, S. aureus ATCC29213, S. epidermidis ATCC12228, S. faecalis ATCC29212 and B. subtilis CMCC63501 were obtained from the College of Veterinary Medicine, Northeast Agricultural University (Harbin, China), E. coli K88, E. coli CVCC1515 and P. aeruginosa ATCC15442 were bestowed by Prof. J.H. Wang (Gene Engineering Laboratory, Feed Research Institute, Chinese Academy of Agricultural Sciences Beijing, China) and E. coli UB1005 was kindly provided by Prof. Q.S. Qi (State Key Laboratory of Microbial Technology, Shandong University, China). […] Briefly, 50 µl of approximate 0.5–1 × 10^6 colony forming units (CFU)/ml of cells were diluted in Mueller-Hinton broth and distributed to 96-well plate, 50 µl of twofold peptides were added and the plates was incubated at 37°C for 18–24 h. The MIC values were calculated as the lowest peptide concentration that prevented visible turbidity and negative control of the pure broth without microbes. The tests were performed at least three times in duplicate.

The test system of the next series is S. pullorum C79-13.
Source text: as §1

A further series deals with P. aeruginosa ATCC15442.
Source text: as §1

Another series relates to S.faecalis ATCC29212.
Source text: as §1

The subject of a further series is P. aeruginosa variant 1. The following applies: P. aeruginosa variant 1, obtained by step-wise culture with ciprofloxacin hydrochloride; MHB, 37°C, 18-24 h.
Source text: as §1

For the next series, the system named is P. aeruginosa variant 2. The following applies: P. aeruginosa variant 2, obtained by step-wise culture with gentamicin; MHB, 37°C, 18-24 h.
Source text: as §1

The subject of a further series is B. subtilis CMCC63501.
Source text: as §1

In another series the test system is E. coli K88. The following applies: MHB, 37°C, 18-24 h, at least three times in duplicate.
Source text: as §1

The subject of a further series is P. aeruginosa ATCC27853.
Source text: as §1

The next series deals with S. typhimurium ATCC14028.
Source text: as §1

For another series, the system named is E. coli ATCC25922.
Source text: as §1

Another series has as its system S.aureus ATCC29213.
Source text: as §1

The next series relates to S.epidermidis ATCC12228.
Source text: as §1

A further series deals with E. coli UB1005.
Source text: as §1

Series [1] relates to human red blood cells (hRBC). Briefly: Hemolytic activity. The series is classed as cell-based. Here is the method:
The amount of released hemoglobin by the lysis of erythrocytes was measured for hemolytic activity of peptides. Human erythrocytes were obtained from a healthy donor with written informed consent. The experimental protocol was reviewed and approved by the ethics committee of the Northeast Agricultural University Hospital. The measurement was based on a previously described method. The fresh hRBCs were washed three times by centrifugation (1000 g, 5 min, 4°C) in PBS (pH 7.4), and then resuspended in PBS to obtain the erythrocyte with a dilution of approximately 1% (v/v). Then, 50 µL of hRBCs solution was incubated with 50 µL of different concentrations of the peptides dissolved in PBS for 1 h at 37°C, before centrifugation (1000 g, 5 min, 4°C) again. The absorbance of the supernatants was measured at optical density (OD) 492 nm. […] The control samples for 0% and 100% hemolysis consisted of hRBCs in PBS (Ablank) only and in 0.1% Triton X-100 (Atriton), respectively. The percentage of hemolysis was calculated according to the following equation: [drawing 3]

The nature of series [2]: Circular dichroism, secondary structure. As to conditions: 30 mM SDS micelles; 150 µM peptide. The series is classed as physicochemical. Here is the method:
The CD spectra were measured with a CD spectropolarimeter (Jasco, J-820, Tokyo, Japan) at 25°C, using a 0.1 cm path length rectangular quartz cell. The spectra were recorded at between 190 and 250 nm at 10 nm/min scanning speed. At least three scans were conducted for each peptide sample.
The acquired CD spectra were converted to the mean residue ellipticity through the following equation: [drawing 1]
where θM is the mean residue ellipticity [deg.cm2.dmol-1], θobs is the observed ellipticity corrected for the buffer at a given wavelength [mdeg], c is the peptide concentration [mM], l is the path length [mm], and n is the number of amino acids.
The percentage of α-helical structure was calculated as followings: [drawing 2]
where [θ]222 is the experimentally observed mean residue ellipticity at 222 nm, and values for [θ]^0 and [θ]^100 which correspond to 0 and 100% a-helix content at 222 nm, are estimated to be −2000 and −32000, respectively, [29].

Series [3] has as its system Gram-negative and Gram-positive strains. Briefly: MIC over all tested strains (range, geometric mean). The series is classed as cell-based. On the set-up: GM (geometric mean of MIC values from all microbial strains): unit not given here. The following applies: for GM (geometric mean of MIC values from all microbial strains): all strains of Table 2.
Source text: as §1

[4] abbreviates: E. coli CVCC1515, MHB, 37°C, 18-24 h, at least three times in duplicate.
Setting [5] is: S. pullorum C79-13, MHB, 37°C, 18-24 h, at least three times in duplicate.
Setting [6] is: P. aeruginosa ATCC15442, MHB, 37°C, 18-24 h, at least three times in duplicate.
The mark [7] stands for this setting: S.faecalis ATCC29212, MHB, 37°C, 18-24 h, at least three times in duplicate.
Setting [8] is: B. subtilis CMCC63501, MHB, 37°C, 18-24 h, at least three times in duplicate.
Setting [9] is: P. aeruginosa ATCC27853, MHB, 37°C, 18-24 h, at least three times in duplicate.
[10] abbreviates: S. typhimurium ATCC14028, MHB, 37°C, 18-24 h, at least three times in duplicate.
[11] abbreviates: E. coli ATCC25922, MHB, 37°C, 18-24 h, at least three times in duplicate.
Where [12] appears, read: S.aureus ATCC29213, MHB, 37°C, 18-24 h, at least three times in duplicate.
Setting [13] is: S.epidermidis ATCC12228, MHB, 37°C, 18-24 h, at least three times in duplicate.
The mark [14] stands for this setting: E. coli UB1005, MHB, 37°C, 18-24 h, at least three times in duplicate.
Setting [15] is: minimum concentration that caused 5% hemolysis of hRBC (footnote), 1% hRBC in PBS pH 7.4, 1 h, 37°C, OD 492 nm.

Like-named read-outs stand apart in the source and are kept apart here. No end group written: not given here. Bounds are passed on as bounds.

In the case of FRIRVRV-NH2 [FV7, reference compound], the MIC against E. coli CVCC1515 (CVCC1515) came to 32 µM; against S. pullorum C79-13 (C79-13) it was 128 µM; in the series with P. aeruginosa ATCC15442 (ATCC15442), 16 µM; in the series on S.faecalis ATCC29212 (ATCC29212) it was 32 µM; in the series with P. aeruginosa variant 1 it was 8 µM; against P. aeruginosa variant 2, 16 µM. The MIC in the series on B. subtilis CMCC63501 (CMCC63501) worked out at 16 µM; in the series with E. coli K88, 16 µM; in the series with P. aeruginosa ATCC27853 (ATCC27853) it was 16 µM; in the series with S. typhimurium ATCC14028 (ATCC14028) it was 16 µM; against E. coli ATCC25922 (ATCC25922) it was 16 µM; with S.aureus ATCC29213 (ATCC29213), 64 µM. For the same substance, the MIC against S.epidermidis ATCC12228 (ATCC12228) and in the series with E. coli UB1005 (UB1005) was 32 µM each time. Besides, the MHC in series [1] (pH 7.4) is above 256 µM. Further, in [2], the “secondary structure (in words)” value was “β-sheet”. Moreover, in [3], the “GM (geometric mean of MIC values from all microbial strains)” value came out at 29.
Take RFRRLRKKTRKRLKKI-NH2 [RI16]: the MIC is recorded as 128 µM in the series on E. coli CVCC1515 (setting [4]); 64 µM against S. pullorum C79-13 (setting [5]); above 256 µM in the series with P. aeruginosa ATCC15442 (setting [6]); 128 µM against S.faecalis ATCC29212 (setting [7]); above 256 µM with P. aeruginosa variant 1; above 256 µM in the series on P. aeruginosa variant 2. The MIC against B. subtilis CMCC63501 (setting [8]) is recorded as 64 µM; in the series on E. coli K88, above 256 µM; in the series with P. aeruginosa ATCC27853 (setting [9]), 128 µM; against S. typhimurium ATCC14028 (setting [10]) it was 64 µM; against E. coli ATCC25922 (setting [11]), 128 µM; with S.aureus ATCC29213 (setting [12]), 128 µM. For the same substance, the MIC in the series on S.epidermidis ATCC12228 (setting [13]) was determined as 32 µM; in the series with E. coli UB1005 (setting [14]) it was 128 µM. In series [1] (setting [15]), this substance showed an MHC above 256 µM.
As to RKKTRKR-NH2 [RR7], the MIC in the series with E. coli CVCC1515 (setting [4]), with S. pullorum C79-13 (setting [5]), in the series with P. aeruginosa ATCC15442 (setting [6]), with S.faecalis ATCC29212 (setting [7]), in the series on P. aeruginosa variant 1 and in the series on P. aeruginosa variant 2 was above 256 µM in each case. Moreover, the MIC against B. subtilis CMCC63501 (setting [8]), in the series on E. coli K88, against P. aeruginosa ATCC27853 (setting [9]), against S. typhimurium ATCC14028 (setting [10]), with E. coli ATCC25922 (setting [11]) and against S.aureus ATCC29213 (setting [12]) was above 256 µM in each case. Further, the MIC with S.epidermidis ATCC12228 (setting [13]) and against E. coli UB1005 (setting [14]) was above 256 µM throughout. Also, the MHC in [1] (setting [15]) is recorded as above 256 µM. Also, the “antimicrobial activity (in words)” value in series [3] (Gram-negative and Gram-positive strains) is on record as “poor antimicrobial activity”. The “GM (geometric mean of MIC values from all microbial strains)” value in series [3] is listed as 256.
